Tests used:
Assay type in all cases: cell-based
[1] = tested on: Ewingella americana 05 06 045; assay: pH variation detection on modified chromID Coli medium (Example 6); design: Coloration strength: key to the marks not given beside the values; settings: 50 mg/l, 24 h 37° C.
Experimental: (§1) The media were incubated for 24 hours at 37° C., then the spots formed were examined visually.

[2] = tested on: E. coli 05 06 043; assay: as above; design: Coloration strength: key to the marks not given beside the values; settings: 50 mg/l, 24 h 37° C.
Experimental: as §1

[3] = tested on: Kluyvera ascorbata 84 08 084; assay: as above; design: Coloration strength: key to the marks not given beside the values; settings: 50 mg/l, 24 h 37° C.
Experimental: as §1

[4] = tested on: Leclercia adecarboxylata 97 04 041; assay: as above; design: Coloration strength: key to the marks not given beside the values; settings: 50 mg/l, 24 h 37° C.
Experimental: as §1

[5] = tested on: Proteus vulgaris 04 05 062; assay: as above; design: Coloration strength: key to the marks not given beside the values; settings: 50 mg/l, 24 h 37° C.
Experimental: as §1

[6] = tested on: Providencia rettgeri 88 05 064; assay: as above; design: Coloration strength: key to the marks not given beside the values; settings: 50 mg/l, 24 h 37° C.
Experimental: as §1

[7] = tested on: Providencia stuartii 92 12 101; assay: as above; design: Coloration strength: key to the marks not given beside the values; settings: 50 mg/l, 24 h 37° C.
Experimental: as §1

[8] = tested on: Shigella spp 76 02 055; assay: as above; design: Coloration strength: key to the marks not given beside the values; settings: 50 mg/l, 24 h 37° C.
Experimental: as §1

[9] = tested on: Salmonella ser. Typhimurium 81 12 010; assay: as above; design: Coloration strength: key to the marks not given beside the values; settings: 50 mg/l, 24 h 37° C.
Experimental: as §1

[10] = tested on: Salmonella ser. Enteritidis 94 06 001; assay: as above; design: Coloration strength: key to the marks not given beside the values; settings: 50 mg/l, 24 h 37° C.
Experimental: as §1

[11] = tested on: Serratia liquefaciens 05 04 117; assay: as above; design: Coloration strength: key to the marks not given beside the values; settings: 50 mg/l, 24 h 37° C.
Experimental: as §1

[12] = tested on: Pantoea agglomerans 04 05 057; assay: as above; design: Coloration strength: key to the marks not given beside the values; settings: 50 mg/l, 24 h 37° C.
Experimental: as §1

[13] = tested on: Shigella sonnei 92 11 060; assay: as above; design: Coloration strength: key to the marks not given beside the values; settings: 50 mg/l, 24 h 37° C.
Experimental: as §1

[14] = tested on: Enterobacter cloacae 05 09 064; assay: as above; design: Coloration strength: key to the marks not given beside the values; settings: 50 mg/l, 24 h 37° C.
Experimental: as §1

[15] = tested on: Proteus mirabilis 04 05 048; assay: as above; design: Coloration strength: key to the marks not given beside the values; settings: 50 mg/l, 24 h 37° C.
Experimental: as §1

[16] = tested on: E. coli 77 05 035; assay: as above; design: Coloration strength: key to the marks not given beside the values; settings: 50 mg/l, 24 h 37° C.
Experimental: as §1

[17] = tested on: Enterobacter amnigenus 05 06 046; assay: as above; design: Coloration strength: key to the marks not given beside the values; settings: 50 mg/l, 24 h 37° C.
Experimental: as §1

[18] = tested on: Edwarsiella tarda 75 07 053; assay: as above; design: Coloration strength: key to the marks not given beside the values; settings: 50 mg/l, 24 h 37° C.
Experimental: as §1

[19] = tested on: Pseudomonas aeruginosa 89 09 041; assay: as above; settings: 50 mg/l, 24 h 37° C.
Experimental: as §1

[20] = tested on: Enterobacter sakazakii 05 01 020; assay: as above; settings: 50 mg/l, 24 h 37° C.
Experimental: as §1

[21] = tested on: Pectobacterium atrosepticum 80 12 075; assay: as above; settings: 50 mg/l, 24 h 37° C.
Experimental: as §1

[22] = tested on: Pseudomonas aeruginosa NCTC 10 662; assay: Peptidase detection on Columbia medium (Example 2); design: key to Growth: NG: No growth; 0.5: weak growth; 1: moderate growth; 2: good growth; settings: 40 mg in 400 ml Columbia; 24 h 37° C.
Experimental: (§2) The 6 media were distributed into Petri dishes 90 mm in diameter, in a proportion of 20 ml per dish.
(§3) Seventeen strains of microorganisms stemming from collections and belonging to various species of bacteria and yeasts are inoculated in spots of approximately 10 000 colony-forming units.
(§4) The media are incubated for 24 hours at 37° C., and then the colonies formed are examined visually, with or without the addition of acid and under a UV lamp at 365 nm.

[23] = tested on: Serratia marcescens NCTC 10 211; assay: Peptidase detection on Columbia medium (Example 2); design: key to Growth: NG: No growth; 0.5: weak growth; 1: moderate growth; 2: good growth; settings: 40 mg in 400 ml Columbia; 24 h 37° C.
Experimental: as §2, §3, §4

[24] = tested on: Staphylococcus aureus NCTC 6 571; assay: Peptidase detection on Columbia medium (Example 2); design: key to Growth: NG: No growth; 0.5: weak growth; 1: moderate growth; 2: good growth; key to Fluo. / Color / Color post-acid.: —: no color; settings: 40 mg in 400 ml Columbia; 24 h 37° C.
Experimental: as §2, §3, §4

[25] = tested on: Enterobacter cloacae NCTC 11 936; assay: Peptidase detection on Columbia medium (Example 2); design: key to Growth: NG: No growth; 0.5: weak growth; 1: moderate growth; 2: good growth; settings: 40 mg in 400 ml Columbia; 24 h 37° C.
Experimental: as §2, §3, §4

[26] = tested on: Streptococcus pyogenes NCTC 8 306; assay: Peptidase detection on Columbia medium (Example 2); design: key to Growth: NG: No growth; 0.5: weak growth; 1: moderate growth; 2: good growth; settings: 40 mg in 400 ml Columbia; 24 h 37° C.
Experimental: as §2, §3, §4

[27] = tested on: Providencia rettgeri NCTC 7 475; assay: Peptidase detection on Columbia medium (Example 2); design: key to Growth: NG: No growth; 0.5: weak growth; 1: moderate growth; 2: good growth; settings: 40 mg in 400 ml Columbia; 24 h 37° C.
Experimental: as §2, §3, §4

SMILES: Nc1ccc(C=Cc2ccnc3ccccc23)cc1
- Color [1]: Orange
- Coloration strength [1]: ++
- Growth ([1]; control C: ++): ++
- Color [2]: Orange
- Coloration strength [2]: ++
- Growth ([2]; control C: ++): ++
- Color [3]: Orange
- Coloration strength [3]: ++
- Growth ([3]; control C: ++): ++
- Color [4]: Orange
- Coloration strength [4]: ++
- Growth ([4]; control C: ++): ++
- Color [5]: Orange
- Coloration strength [5]: ++
- Growth ([5]; control C: ++): ++
- Color [6]: Orange
- Coloration strength [6]: ++
- Growth ([6]; control C: ++): ++
- Color [7]: Orange
- Coloration strength [7]: ++
- Growth ([7]; control C: ++): ++
- Color [8]: Orange
- Coloration strength [8]: ++
- Growth ([8]; control C: ++): ++
- Color [9]: Orange
- Coloration strength [9]: ++
- Growth ([9]; control C: ++): ++
- Color [10]: Orange
- Coloration strength [10]: ++
- Growth ([10]; control C: ++): ++
- Color [11]: Orange
- Coloration strength [11]: ++
- Growth ([11]; control C: ++): ++
- Color [12]: Orange
- Coloration strength [12]: ++
- Growth ([12]; control C: ++): ++
- Color [13]: Orange
- Coloration strength [13]: ++
- Growth ([13]; control C: ++): ++
- Color [14]: Orange
- Coloration strength [14]: ++
- Growth ([14]; control C: ++): ++
- Color [15]: Orange
- Coloration strength [15]: ++
- Growth ([15]; control C: ++): ++
- Color [16]: Orange
- Coloration strength [16]: ++
- Growth ([16]; control C: ++): ++
- Color [17]: Orange
- Coloration strength [17]: ++
- Growth ([17]; control C: ++): ++
- Color [18]: Orange
- Coloration strength [18]: ++
- Growth ([18]; control C: ++): ++
- Coloration strength [19]: −
- Growth ([19]; control C: ++): +
- Coloration strength [20]: −
- Growth ([20]; control C: ++): ++
- Coloration strength [21]: −
- Growth ([21]; control C: −): −

SMILES: C[C@H](N)C(=O)N[C@@H](C)C(=O)N[C@@H](C)C(=O)Nc1ccc(C=Cc2cc[n+](C)c3ccccc23)cc1.Cl.[Cl-] [Tri-Ala-ASQM^+, L-alanyl-L-alanyl-L-alanyl-4-(4′-amidostyryl)-N-methylquinolinium (dichloride)]
- Color [22]: Orange
- Growth [22]: 2
- Color [23]: Orange
- Growth [23]: 2
- Color [24]: —
- Growth [24]: 2
- Color [25]: Orange
- Growth [25]: 2
- Growth [26]: 2
- Growth [27]: 2

Reference: US8592174B2, “Peptidase substrates” (bioMérieux, S.A., priority 2009, dated 2013)
